Here are results for four molecules from patent US20110039289A1, “FLUOROGENIC PEPTIDES AND THEIR METHOD OF PRODUCTION” (priority 2008, published 2011).

The nature of data set [1]: Fluorescence lifetime by time correlated single photon counting. The conditions noted are these: 2-aminoacridone attached directly to the α-carboxylic acid group.
Method: The fluorescence lifetimes of the synthesised peptides recorded above were measured by time correlated single photon counting. Peptides were dissolved in aqueous buffer solutions and excited at 405 nm using a pulsed solid state laser diode (Picoquant LDH-405). Fluorescent emission was filtered through a narrow bandpass interference filter (480/20 nm) and single photons were detected by a photomultiplier tube detector (Hamamatsu R7400P) and counted using a fast timing board with histogramming memory (Ortec 9353).
A further data set addresses T1, caspase 3 enzyme (Homo sapiens, UniProt P42574).
T1 sequence (P42574 29-175 limits assumed): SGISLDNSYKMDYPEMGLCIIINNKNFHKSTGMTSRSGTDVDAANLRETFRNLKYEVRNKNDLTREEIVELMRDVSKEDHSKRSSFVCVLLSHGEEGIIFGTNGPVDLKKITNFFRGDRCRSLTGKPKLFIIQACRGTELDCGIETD
T1 sequence (P42574 176-277 limits assumed): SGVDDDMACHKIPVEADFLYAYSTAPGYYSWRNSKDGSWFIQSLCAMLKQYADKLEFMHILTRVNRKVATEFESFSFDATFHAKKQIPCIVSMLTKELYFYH
Put plainly: Cleavage of fluorogenic peptides by caspase 3 (Example 3, FIG. 1). The data set is classed as biochemical. Particulars: 1 mM Zn2+. The source says:
Caspase 3 cleaves WSDEVD-(2aa2) and WSDEVD-(2aa6) at the second aspartic acid residue.
PT14 peptide is WSDEVD-PT14, a conventionally labeled peptide, where PT14 is the Puretime 14 moiety. PT14 peptide is also known as peptide 10, but is not made in accordance with the method of the present invention. Puretime 14 is available from AssayMetrics Limited, Cardiff, UK.

For the molecule `CC(=O)N[C@@H](C)C(=O)Nc1ccc2[nH]c3ccccc3c(=O)c2c1`, the “fluorescence lifetime of adducts of 2-aminoacridone” value in data set [1] is 18.1 nanoseconds.
With `CC(=O)N[C@@H](Cc1c[nH]c2ccccc12)C(=O)Nc1ccc2[nH]c3ccccc3c(=O)c2c1`, the “fluorescence lifetime of adducts of 2-aminoacridone” value in data set [1] was determined as 3.0 nanoseconds.
The same measure, in the same setting: as for `CC(=O)N[C@@H](Cc1ccc(O)cc1)C(=O)Nc1ccc2[nH]c3ccccc3c(=O)c2c1`, the figure is 9.4 nanoseconds.
Regarding zinc ions [reference compound], at caspase 3 enzyme, the “effect on the action of caspase 3 enzyme” value is listed as “inhibited the action of the enzyme”.
